Values after ≈ are worked out from the molar mass of the structure shown.
Conditions: buffer; pH 7.4; 200.0 µM
For `CCN(c1ccccc1)S(=O)(=O)c1cc(C(=O)NCC(c2ccco2)N2CCCCC2)ccc1C` (stereo not given), the solubility kinetic was 18.2 µg/mL (≈ 36.7 µM). With `O=C(Cn1cc(C(F)(F)F)ccc1=O)Nc1ccc2c(c1)OCCO2` the solubility kinetic was 25.2 µg/mL (≈ 71.1 µM). Compound `c1ccc(-n2ccnc2)cc1` has a solubility kinetic of 19.7 µg/mL (≈ 137 µM). In the case of `C=CCn1c(C(C)(C)C)nc2ccccc21`, the solubility kinetic is reported as 24.6 µg/mL (≈ 115 µM). Compound `CCOc1c(Cl)cc(CNCc2ccccn2)cc1OC.Cl` has a solubility kinetic of 45.2 µg/mL. Compound `CCOCCn1c(-c2ccccc2)nc2ccccc21` has a solubility kinetic of 39.5 µg/mL (≈ 148 µM). `CCOC(=O)c1ccc(NC(=O)NCCc2cnc[nH]2)cc1` showed a solubility kinetic greater than 45.3 µg/mL. In the case of `N#CC(C#N)=C1NC(N)=C(C#N)C(c2ccccc2)=C1C#N`, the solubility kinetic is reported as greater than 42.6 µg/mL. `COc1ccc(C(=O)OC(C)CN2CCN(C)CC2)cc1.Cl` (stereo not given) showed a solubility kinetic greater than 49.3 µg/mL. In the case of `CC1CCN(c2nc3c(cc2C#N)COC(C)(C)C3)CC1`, the solubility kinetic is reported as 16 µg/mL (≈ 56.1 µM). Compound `O=c1[nH]snc1N1CCOCC1` has a solubility kinetic greater than 28.1 µg/mL. Work on `CN(C)/C=C/C(=O)c1ccn(S(=O)(=O)c2ccccc2)c1` yielded a solubility kinetic greater than 45.7 µg/mL. In the case of `Cc1ccc2nc(C)c3c(c2c1)N(c1ccc(F)cc1)CC3`, the solubility kinetic is reported as 40.6 µg/mL (≈ 139 µM). For `COc1ccccc1N1CCN(CC(O)c2c(C)[nH]c3ccccc23)CC1` (stereo not given), the solubility kinetic was greater than 54.8 µg/mL. For `Cn1nccc1NS(=O)(=O)c1ccc(NC(=O)C(F)(F)F)cc1`, the solubility kinetic was greater than 52.2 µg/mL. For `O=C(NC1CCCCC1)c1cc(-c2ccccc2Cl)on1`, the solubility kinetic was less than 0.3 µg/mL. `COc1cc(OC)c(S(=O)(=O)NC(C)C)cc1C(=O)O` gave a solubility kinetic greater than 45.5 µg/mL. `Cc1nnc(Nc2ccccc2F)s1` showed a solubility kinetic greater than 31.4 µg/mL. `Cc1cc(C)nc(NC(=O)c2ccc(Br)cc2)n1` gave a solubility kinetic greater than 45.9 µg/mL. Work on `O=C(Nc1ccccn1)c1ccc(-c2ccccc2)cc1` yielded a solubility kinetic of 0.9 µg/mL (≈ 3.28 µM). Compound `CCOC(=O)N1CCc2c(sc3nc[nH]c(=O)c23)C1` has a solubility kinetic of 38.9 µg/mL (≈ 139 µM). For `CC(=O)c1c(C)[n+]([O-])c2ccc3c(non3O)c12`, the solubility kinetic was 25.5 µg/mL (≈ 103 µM). With `CCOc1cc2c(cc1/C=C/c1noc(C)c1[N+](=O)[O-])OC(C)C2` (stereo not given) the solubility kinetic was less than 0.4 µg/mL. In the case of `COC(=O)c1cc(=O)n(-c2c(Cl)cc(C(F)(F)F)cc2Cl)[nH]1`, the solubility kinetic is reported as greater than 53.3 µg/mL. `CC(C)Oc1ccc(C2CC(=O)NC2=O)cc1` (stereo not given) showed a solubility kinetic greater than 35 µg/mL. For `CCC1Oc2ccccc2N(CC(=O)NCC2CCCO2)C1=O` (stereo not given), the solubility kinetic was 44.5 µg/mL (≈ 140 µM). For `COc1ccc(CCNC(=O)COC(=O)c2cccn2C)cc1`, the solubility kinetic was greater than 47.5 µg/mL. For `O=C(Nc1cccc(F)c1)Nc1ccc(Cl)cn1`, the solubility kinetic was less than 0.2 µg/mL. With `O=C1NC(=Nc2cccc([N+](=O)[O-])c2)SC1(CO)CO` the solubility kinetic was 41.2 µg/mL (≈ 139 µM). `CCN(CC)S(=O)(=O)c1cccc(-c2csc(C)n2)c1` gave a solubility kinetic of 37.8 µg/mL (≈ 122 µM). `COc1cccc2cc(-c3nc4ccccc4[nH]3)c(=O)oc12` gave a solubility kinetic of less than 0.3 µg/mL. For `O=S1(=O)N=C2CCCCCN2C(c2ccc(F)cc2)N1` (stereo not given), the solubility kinetic was greater than 44.6 µg/mL. For `CN(C)S(=O)(=O)c1cccc(C(=O)c2nccn2C)c1`, the solubility kinetic was 41.5 µg/mL (≈ 141 µM). `C/C(=N\O)C(C)(C)Nc1ccccc1F` showed a solubility kinetic of 28.1 µg/mL (≈ 134 µM). In the case of `COc1ccc(NC(=O)CN2C(=O)NC3(CCCc4ccccc43)C2=O)c(OC)c1` (stereo not given), the solubility kinetic is reported as greater than 61.4 µg/mL. Work on `O=C(O)CSC1CC(=O)N(c2ccc(Br)cc2)C1=O` (stereo not given) yielded a solubility kinetic greater than 51.6 µg/mL. Work on `CCNC(=S)N1CCC(C(=O)c2ccc3c(c2)OCCO3)CC1` yielded a solubility kinetic of 44.8 µg/mL (≈ 134 µM). `FC(F)Sc1nc2ccccc2[nH]1` gave a solubility kinetic greater than 30 µg/mL. For `Cc1cc(Cl)c2oc(C(=O)N3CCC(O)(c4ccccc4)CC3)c(C)c2c1`, the solubility kinetic was 2.2 µg/mL (≈ 5.73 µM). `CN(C(=S)NC(=O)c1ccc(F)cc1)C1CCCCC1` showed a solubility kinetic of 8.8 µg/mL (≈ 29.9 µM). `CCC(Sc1ncccc1Nc1ccccn1)C(=O)O` (stereo not given) gave a solubility kinetic greater than 43.4 µg/mL. Compound `CCCn1c(=S)[nH]c2ccc(C(F)(F)F)cc21` has a solubility kinetic of 20.7 µg/mL (≈ 79.5 µM). `Cc1cccc(OCCCC(=O)Nc2nccs2)c1C` gave a solubility kinetic of 1.5 µg/mL (≈ 5.17 µM). In the case of `CC(C)[C@H](NC(=O)c1ccc([N+](=O)[O-])cc1Cl)C(=O)N1CCN(C/C=C/c2ccccc2)CC1`, the solubility kinetic is reported as 44.3 µg/mL (≈ 91.3 µM). For `NC(=O)c1ccc(NC(=O)COC(=O)CCSc2ccccc2)cc1`, the solubility kinetic was 15.1 µg/mL (≈ 42.1 µM). Compound `O=C1[C@@H]2C(c3ccc(F)cc3)=NO[C@@H]2C(=O)N1Cc1ccccc1` has a solubility kinetic of 7.8 µg/mL (≈ 24.1 µM). `O=C(O)c1cccc2c1C(=O)N(c1ccccc1)C2` gave a solubility kinetic greater than 38 µg/mL. Compound `COc1ccc(NC(=O)COC(=O)CCC2CCCCC2)cc1` has a solubility kinetic of 19.4 µg/mL (≈ 60.7 µM). Compound `O=C(Nc1ccccc1-c1ccccc1)c1ccccc1[N+](=O)[O-]` has a solubility kinetic of 16.8 µg/mL (≈ 52.8 µM). Compound `CCCN1CCC(N2CCN(c3ccc([N+](=O)[O-])cc3)CC2)CC1` has a solubility kinetic of 32.3 µg/mL (≈ 97.2 µM). For `Cc1cccc2cc(CN(Cc3ccco3)C(=O)c3ccco3)c(=O)[nH]c12`, the solubility kinetic was 0.8 µg/mL (≈ 2.21 µM). With `c1ccc(-c2csc(-c3cccnc3)n2)cc1` the solubility kinetic was 8.5 µg/mL (≈ 35.7 µM). In the case of `CN(Cc1cccnc1)C(=O)CNC(=O)COc1ccccc1`, the solubility kinetic is reported as greater than 47 µg/mL. Compound `CCOc1ccccc1/C=C/C(=O)N1CCN(C(=O)c2ccco2)CC1` has a solubility kinetic greater than 53.2 µg/mL. With `O=C(NC1CC2CCCC(C1)N2Cc1ccccc1)C1CCCCC1` (stereo not given) the solubility kinetic was greater than 51.1 µg/mL. `CN1CCN(CCn2c(=S)[nH]c3ccccc3c2=O)CC1` showed a solubility kinetic greater than 45.7 µg/mL. Compound `COCC(C)Nc1nc(C)c(C(C)=O)s1` (stereo not given) has a solubility kinetic greater than 34.2 µg/mL. With `CN1CCN(S(=O)(=O)c2cccc(C(=O)Nc3cccc([N+](=O)[O-])c3)c2)CC1` the solubility kinetic was 59.7 µg/mL (≈ 148 µM). `COc1ccccc1NS(=O)(=O)c1ccc2ccccc2c1` gave a solubility kinetic of 12.1 µg/mL (≈ 38.6 µM). Work on `CC1(C)C[C@@H]2C[C@@](C)(CN2C(=O)c2ccccc2)C1` yielded a solubility kinetic of 36.5 µg/mL (≈ 142 µM).

— PubChem BioAssay AID1996
